Measurements as given in patent US7799809B2, “Carboxamide compounds and their use as calpain inhibitors” (Abbott GmbH & Co. KG, priority 2006, dated 2010).

Columns and labels:
Type in all cases: biochemical
cathepsin L = target: T1, cathepsin L (Homo sapiens, UniProt P07711); assay: Cathepsin L enzyme inhibition in vitro (kinetic fluorescence assay); settings: cathepsin L isolated from human liver vs calpain I
T1 construct: cathepsin L—isolated from human liver (Calbiochem #219402); purchased Calbiochem 219402; host or cells: human liver (tissue-derived)
T1 sequence (P07711 114-333): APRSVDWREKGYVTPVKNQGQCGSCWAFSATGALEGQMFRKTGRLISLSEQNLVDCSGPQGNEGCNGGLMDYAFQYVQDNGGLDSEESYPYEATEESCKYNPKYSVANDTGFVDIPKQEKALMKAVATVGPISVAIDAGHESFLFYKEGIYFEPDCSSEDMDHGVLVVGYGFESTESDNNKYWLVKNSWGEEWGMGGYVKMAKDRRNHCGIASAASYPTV
How it was run: (§1)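 Inhibition is measured at room temperature in cysteine-containing MES buffer, pH 6.0, by continuous fluorescence at 460 nm. Cathepsin S (0.5 nM) uses 20 μM Z-Val-Val-Arg-AMC; L (1 nM) and B (0.25 nM) use Z-Phe-Arg-AMC at 2 and 100 μM respectively.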

cathepsin K = target: T2, cathepsin K (Homo sapiens, UniProt P43235); assay: Cathepsin K enzyme inhibition in vitro (kinetic fluorescence assay); settings: cathepsin K activated from recombinant human procathepsin K vs calpain I
T2 construct: purchased Calbiochem 342001; host or cells: E. coli
T2 sequence (P43235 115-329): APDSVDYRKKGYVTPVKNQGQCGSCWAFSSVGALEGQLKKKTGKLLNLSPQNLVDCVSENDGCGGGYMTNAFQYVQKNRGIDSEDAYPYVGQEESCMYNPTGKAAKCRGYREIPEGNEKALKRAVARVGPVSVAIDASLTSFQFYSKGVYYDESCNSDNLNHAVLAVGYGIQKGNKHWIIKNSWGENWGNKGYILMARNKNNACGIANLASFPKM

cathepsin S = target: T3, cathepsin S (Homo sapiens, UniProt P25774); assay: Cathepsin S enzyme inhibition in vitro (kinetic fluorescence assay); settings: recombinant human cathepsin S vs calpain I
T3 construct: purchased Calbiochem 219343; host or cells: E. coli
T3 sequence (P25774 115-331): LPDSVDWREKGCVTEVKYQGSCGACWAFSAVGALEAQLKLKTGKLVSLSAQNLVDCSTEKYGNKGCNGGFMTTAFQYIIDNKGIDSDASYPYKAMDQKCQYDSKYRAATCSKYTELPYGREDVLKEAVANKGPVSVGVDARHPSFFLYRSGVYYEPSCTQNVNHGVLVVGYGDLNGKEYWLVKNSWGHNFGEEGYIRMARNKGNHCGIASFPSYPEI
How it was run: as §1

cathepsin B = target: T4, cathepsin B (Homo sapiens, UniProt P07858); assay: Cathepsin B enzyme inhibition in vitro (kinetic fluorescence assay); settings: cathepsin B isolated from human liver vs calpain I
T4 construct: cathepsin B—isolated from human liver (Calbiochem #219362); purchased Calbiochem 219362; host or cells: human liver (tissue-derived)
How it was run: as §1

Structure (SMILES): NC(=O)C(=O)C(Cc1ccc(Cl)cc1)NC(=O)c1cccnc1-n1ccc(-c2ccccc2)n1 (stereo not drawn) [Example 50, N-[3-Amino-1-(4-chlorobenzyl)-2,3-dioxopropyl]-2-(3-phenyl-1H-pyrazol-1-yl)nicotinamide]
- Sel cat. L: Ki(cathepsin L)/Ki(calpain) ratio (cathepsin L): + (+ means 30≦Ki(cathepsin L)/Ki(calpain)<50)
- Sel cat. K: Ki(cathepsin K)/Ki(calpain) ratio (cathepsin K): + (+ means 10≦Ki(cathepsin K)/Ki(calpain)<30)
- Sel cat. S: Ki(cathepsin S)/Ki(calpain) ratio (cathepsin S): + (+ means 50≦Ki(cathepsin S)/Ki(calpain)<100)
- Sel cat. B: Ki(cathepsin B)/Ki(calpain) ratio (cathepsin B): + (+ means 10≦Ki(cathepsin B)/Ki(calpain)<30)

Structure (SMILES): NC(=O)C(=O)C(Cc1ccccc1)NC(=O)c1cccnc1-n1cc2c(n1)-c1cccc(Cl)c1OC2 (stereo not drawn) [Example 175, N-[3-Amino-2,3-dioxo-1-(phenylmethyl)propyl]-2-(6-chlorochromeno[4,3-c]pyrazol-2(4H)-yl)pyridine-3-carboxamide]
- Sel cat. L: Ki(cathepsin L)/Ki(calpain) ratio (cathepsin L): ++ (++ means a Ki(cathepsin L)/Ki(calpain) ratio of ≧50)
- Sel cat. K: Ki(cathepsin K)/Ki(calpain) ratio (cathepsin K): ++ (++ means a Ki(cathepsin K)/Ki(calpain) ratio of ≧30)
- Sel cat. S: Ki(cathepsin S)/Ki(calpain) ratio (cathepsin S): ++ (++ means a Ki(cathepsin S)/Ki(calpain) ratio of ≧100)
- Sel cat. B: Ki(cathepsin B)/Ki(calpain) ratio (cathepsin B): ++ (++ means a Ki(cathepsin B)/Ki(calpain) ratio of ≧30)

Structure (SMILES): COc1cc(F)ccc1-c1ccn(-c2ncccc2C(=O)NC(Cc2ccccc2)C(=O)C(N)=O)n1 (stereo not drawn) [Example 125, N-[3-Amino-2,3-dioxo-1-(phenylmethyl)propyl]-2-{3-[4-fluoro-2-(methyloxy)phenyl]-1H-pyrazol-1-yl}pyridine-3-carboxamide]
- Sel cat. L: Ki(cathepsin L)/Ki(calpain) ratio (cathepsin L): ++ (++ means a Ki(cathepsin L)/Ki(calpain) ratio of ≧50)
- Sel cat. K: Ki(cathepsin K)/Ki(calpain) ratio (cathepsin K): ++ (++ means a Ki(cathepsin K)/Ki(calpain) ratio of ≧30)
- Sel cat. S: Ki(cathepsin S)/Ki(calpain) ratio (cathepsin S): ++ (++ means a Ki(cathepsin S)/Ki(calpain) ratio of ≧100)
- Sel cat. B: Ki(cathepsin B)/Ki(calpain) ratio (cathepsin B): ++ (++ means a Ki(cathepsin B)/Ki(calpain) ratio of ≧30)

Structure (SMILES): NC(=O)C(=O)C(Cc1ccccc1)NC(=O)c1cccnc1-n1cc(Cl)c(-c2ccc(F)cc2)n1 (stereo not drawn) [Example 184, N-[3-Amino-2,3-dioxo-1-(phenylmethyl)propyl]-2-[4-chloro-3-(4-fluorophenyl)-1H-pyrazol-1-yl]pyridine-3-carboxamide]
- Sel cat. L: Ki(cathepsin L)/Ki(calpain) ratio (cathepsin L): ++ (++ means a Ki(cathepsin L)/Ki(calpain) ratio of ≧50)
- Sel cat. K: Ki(cathepsin K)/Ki(calpain) ratio (cathepsin K): + (+ means 10≦Ki(cathepsin K)/Ki(calpain)<30)
- Sel cat. S: Ki(cathepsin S)/Ki(calpain) ratio (cathepsin S): ++ (++ means a Ki(cathepsin S)/Ki(calpain) ratio of ≧100)
- Sel cat. B: Ki(cathepsin B)/Ki(calpain) ratio (cathepsin B): + (+ means 10≦Ki(cathepsin B)/Ki(calpain)<30)

Structure (SMILES): COc1ccccc1-c1ccn(-c2ncccc2C(=O)NC(Cc2ccccc2)C(=O)C(N)=O)n1 (stereo not drawn) [Example 90, N-[3-Amino-2,3-dioxo-1-(phenylmethyl)propyl]-2-{3-[2-(methyloxy)phenyl]-1H-pyrazol-1-yl}pyridine-3-carboxamide]
- Sel cat. L: Ki(cathepsin L)/Ki(calpain) ratio (cathepsin L): ++ (++ means a Ki(cathepsin L)/Ki(calpain) ratio of ≧50)
- Sel cat. K: Ki(cathepsin K)/Ki(calpain) ratio (cathepsin K): + (+ means 10≦Ki(cathepsin K)/Ki(calpain)<30)
- Sel cat. S: Ki(cathepsin S)/Ki(calpain) ratio (cathepsin S): ++ (++ means a Ki(cathepsin S)/Ki(calpain) ratio of ≧100)
- Sel cat. B: Ki(cathepsin B)/Ki(calpain) ratio (cathepsin B): ++ (++ means a Ki(cathepsin B)/Ki(calpain) ratio of ≧30)

Structure (SMILES): NC(=O)C(=O)C(Cc1ccccc1)NC(=O)c1cccnc1-n1ccc(-c2ccc(Cl)s2)n1 (stereo not drawn) [Example 103, N-[3-Amino-2,3-dioxo-1-(phenylmethyl)propyl]-2-[3-(5-chloro-2-thienyl)-1H-pyrazol-1-yl]pyridine-3-carboxamide]
- Sel cat. L: Ki(cathepsin L)/Ki(calpain) ratio (cathepsin L): ++ (++ means a Ki(cathepsin L)/Ki(calpain) ratio of ≧50)
- Sel cat. K: Ki(cathepsin K)/Ki(calpain) ratio (cathepsin K): + (+ means 10≦Ki(cathepsin K)/Ki(calpain)<30)
- Sel cat. S: Ki(cathepsin S)/Ki(calpain) ratio (cathepsin S): ++ (++ means a Ki(cathepsin S)/Ki(calpain) ratio of ≧100)
- Sel cat. B: Ki(cathepsin B)/Ki(calpain) ratio (cathepsin B): + (+ means 10≦Ki(cathepsin B)/Ki(calpain)<30)
